Legend:
ISC-enriched organoids [1] = experiment: Primary screen, 384-well 2.5-D organoid differentiation (ENR+CD, 6 days, Target Selective Inhibitor Library, vs whole-plate median): ATP (CellTiter-Glo 3D, CTG); settings: for Dose.FC.CTG: FC vs plate median; for Z.CTG: standard z score of FC
ISC-enriched organoids [2] = experiment: Primary screen, 384-well 2.5-D organoid differentiation (ENR+CD, 6 days): carbachol-induced lysozyme secretion (LYZ.S); type: cell-based, murine; settings: for Dose.FC.LYZ.S: primary screen, FC vs plate median
Description: (§1) High-throughput screening.

ISC-enriched organoids [3] = experiment: Primary screen, 384-well 2.5-D organoid differentiation (ENR+CD, 6 days): basal lysozyme secretion (LYZ.NS); type: cell-based, murine; settings: for Dose.FC.LYZ.NS: FC vs plate median; for Z.LYZ.NS: standard z score of FC
Description: as §1

[4] = dose 0.08 uM (1st of 4 lines per treatment; dose not printed in this part)
[5] = dose 0.40 uM (2nd of 4 lines per treatment; dose not printed in this part)
[6] = dose 2.00 uM (3rd of 4 lines per treatment; dose not printed in this part)
[7] = dose 10.00 uM (4th of 4 lines per treatment; dose not printed in this part)
[8] = primary screen, dose 0.08 uM, ENR+CD 6 days
[9] = primary screen, dose 0.40 uM, ENR+CD 6 days
[10] = primary screen, dose 2.00 uM, ENR+CD 6 days
[11] = primary screen, dose 10.00 uM, ENR+CD 6 days

C=C1C(=O)O[C@H]2[C@H]1CC/C(C)=C/CC[C@@]1(C)O[C@@H]21 [(−)-Parthenolide]
SSMD.CTG_Rep (strictly standardized mean difference) (ISC-enriched organoids [1]; [4]): 0.498
SSMD.CTG_Rep (strictly standardized mean difference) (ISC-enriched organoids [1]; [5]): 0.736
SSMD.CTG_Rep (strictly standardized mean difference) (ISC-enriched organoids [1]; [6]): 0.482
SSMD.CTG_Rep (strictly standardized mean difference) (ISC-enriched organoids [1]; [7]): 0.257
Dose.FC.CTG (ISC-enriched organoids [1]; [8]): 0.135 log 2 fold change
Z.CTG (ISC-enriched organoids [1]; primary screen, dose 0.08 uM): 0.322
Dose.FC.CTG (ISC-enriched organoids [1]; [9]): 0.228 log 2 fold change
Z.CTG (ISC-enriched organoids [1]; primary screen, dose 0.40 uM): 0.544
Dose.FC.CTG (ISC-enriched organoids [1]; [10]): 0.157 log 2 fold change
Z.CTG (ISC-enriched organoids [1]; primary screen, dose 2.00 uM): 0.376
Dose.FC.CTG (ISC-enriched organoids [1]; [11]): 0.157 log 2 fold change
Z.CTG (ISC-enriched organoids [1]; primary screen, dose 10.00 uM): 0.374
SSMD.LYZ.S_Rep (strictly standardized mean difference) (ISC-enriched organoids [2]; [4]): 0.679
Z.LYZ.S (standard z score) (ISC-enriched organoids [2]; [4]): 0.799
SSMD.LYZ.S_Rep (strictly standardized mean difference) (ISC-enriched organoids [2]; [5]): 0.763
Z.LYZ.S (standard z score) (ISC-enriched organoids [2]; [5]): 1.067
SSMD.LYZ.S_Rep (strictly standardized mean difference) (ISC-enriched organoids [2]; [6]): 0.506
Z.LYZ.S (standard z score) (ISC-enriched organoids [2]; [6]): 0.441
SSMD.LYZ.S_Rep (strictly standardized mean difference) (ISC-enriched organoids [2]; [7]): 0.345
Z.LYZ.S (standard z score) (ISC-enriched organoids [2]; [7]): 0.530
Dose.FC.LYZ.S (ISC-enriched organoids [2]; dose 0.08 uM, ENR+CD 6 days): 0.124 log 2 fold change
Dose.FC.LYZ.S (ISC-enriched organoids [2]; dose 0.40 uM, ENR+CD 6 days): 0.165 log 2 fold change
Dose.FC.LYZ.S (ISC-enriched organoids [2]; dose 2.00 uM, ENR+CD 6 days): 0.068 log 2 fold change
Dose.FC.LYZ.S (ISC-enriched organoids [2]; dose 10.00 uM, ENR+CD 6 days): 0.082 log 2 fold change
SSMD.LYZ.NS_Rep (strictly standardized mean difference) (ISC-enriched organoids [3]; [4]): 0.601
SSMD.LYZ.NS_Rep (strictly standardized mean difference) (ISC-enriched organoids [3]; [5]): 0.480
SSMD.LYZ.NS_Rep (strictly standardized mean difference) (ISC-enriched organoids [3]; [6]): 0.920
SSMD.LYZ.NS_Rep (strictly standardized mean difference) (ISC-enriched organoids [3]; [7]): 0.998
Dose.FC.LYZ.NS (ISC-enriched organoids [3]; [8]): 0.058 log 2 fold change
Z.LYZ.NS (ISC-enriched organoids [3]; primary screen, dose 0.08 uM): 0.506
Dose.FC.LYZ.NS (ISC-enriched organoids [3]; [9]): 0.067 log 2 fold change
Z.LYZ.NS (ISC-enriched organoids [3]; primary screen, dose 0.40 uM): 0.583
Dose.FC.LYZ.NS (ISC-enriched organoids [3]; [10]): 0.089 log 2 fold change
Z.LYZ.NS (ISC-enriched organoids [3]; primary screen, dose 2.00 uM): 0.776
Dose.FC.LYZ.NS (ISC-enriched organoids [3]; [11]): 0.133 log 2 fold change
Z.LYZ.NS (ISC-enriched organoids [3]; primary screen, dose 10.00 uM): 1.159

C/C(=N\NC(=S)N1CCC1)c1ccccn1 [NSC 319726]
Dose.FC.CTG (ISC-enriched organoids [1]; Dose 0.08 uM, primary screen): 0.132 log 2 fold change
Z.CTG (ISC-enriched organoids [1]; Dose 0.08 uM): 0.316
Dose.FC.CTG (ISC-enriched organoids [1]; Dose 0.40 uM, primary screen): −0.185 log 2 fold change
Z.CTG (ISC-enriched organoids [1]; Dose 0.40 uM): −0.441
Dose.FC.CTG (ISC-enriched organoids [1]; Dose 2.00 uM, primary screen): −0.447 log 2 fold change
Z.CTG (ISC-enriched organoids [1]; Dose 2.00 uM): −1.068
Dose.FC.CTG (ISC-enriched organoids [1]; Dose 10.00 uM, primary screen): −1.907 log 2 fold change
Z.CTG (ISC-enriched organoids [1]; Dose 10.00 uM): −4.555
Dose.FC.LYZ.S (ISC-enriched organoids [2]; Dose 0.08 uM): 0.060 log 2 fold change
Dose.FC.LYZ.S (ISC-enriched organoids [2]; Dose 0.40 uM): −0.035 log 2 fold change
Dose.FC.LYZ.S (ISC-enriched organoids [2]; Dose 2.00 uM): −0.248 log 2 fold change
Dose.FC.LYZ.S (ISC-enriched organoids [2]; Dose 10.00 uM): −0.327 log 2 fold change
Dose.FC.LYZ.NS (ISC-enriched organoids [3]; Dose 0.08 uM, primary screen): 0.113 log 2 fold change
Z.LYZ.NS (ISC-enriched organoids [3]; Dose 0.08 uM): 0.982
Dose.FC.LYZ.NS (ISC-enriched organoids [3]; Dose 0.40 uM, primary screen): −0.090 log 2 fold change
Z.LYZ.NS (ISC-enriched organoids [3]; Dose 0.40 uM): −0.780
Dose.FC.LYZ.NS (ISC-enriched organoids [3]; Dose 2.00 uM, primary screen): −0.152 log 2 fold change
Z.LYZ.NS (ISC-enriched organoids [3]; Dose 2.00 uM): −1.323
Dose.FC.LYZ.NS (ISC-enriched organoids [3]; Dose 10.00 uM, primary screen): −0.229 log 2 fold change
Z.LYZ.NS (ISC-enriched organoids [3]; Dose 10.00 uM): −1.992

CC(C)(C)n1nc(-c2ccc(Cl)cc2)c2c(N)ncnc21 [PP2]
Dose.FC.CTG (ISC-enriched organoids [1]; Dose 0.08 uM, primary screen): −0.693 log 2 fold change
Z.CTG (ISC-enriched organoids [1]; Dose 0.08 uM): −1.655
Dose.FC.CTG (ISC-enriched organoids [1]; Dose 0.40 uM, primary screen): 0.130 log 2 fold change
Z.CTG (ISC-enriched organoids [1]; Dose 0.40 uM): 0.312
Dose.FC.CTG (ISC-enriched organoids [1]; Dose 2.00 uM, primary screen): −0.382 log 2 fold change
Z.CTG (ISC-enriched organoids [1]; Dose 2.00 uM): −0.913
Dose.FC.CTG (ISC-enriched organoids [1]; Dose 10.00 uM, primary screen): −0.246 log 2 fold change
Z.CTG (ISC-enriched organoids [1]; Dose 10.00 uM): −0.587
Dose.FC.LYZ.S (ISC-enriched organoids [2]; Dose 0.08 uM): 0.058 log 2 fold change
Dose.FC.LYZ.S (ISC-enriched organoids [2]; Dose 0.40 uM): 0.145 log 2 fold change
Dose.FC.LYZ.S (ISC-enriched organoids [2]; Dose 2.00 uM): 0.113 log 2 fold change
Dose.FC.LYZ.S (ISC-enriched organoids [2]; Dose 10.00 uM): 0.027 log 2 fold change
Dose.FC.LYZ.NS (ISC-enriched organoids [3]; Dose 0.08 uM, primary screen): 0.033 log 2 fold change
Z.LYZ.NS (ISC-enriched organoids [3]; Dose 0.08 uM): 0.285
Dose.FC.LYZ.NS (ISC-enriched organoids [3]; Dose 0.40 uM, primary screen): 0.012 log 2 fold change
Z.LYZ.NS (ISC-enriched organoids [3]; Dose 0.40 uM): 0.104
Dose.FC.LYZ.NS (ISC-enriched organoids [3]; Dose 2.00 uM, primary screen): 0.270 log 2 fold change
Z.LYZ.NS (ISC-enriched organoids [3]; Dose 2.00 uM): 2.354
Dose.FC.LYZ.NS (ISC-enriched organoids [3]; Dose 10.00 uM, primary screen): −0.027 log 2 fold change
Z.LYZ.NS (ISC-enriched organoids [3]; Dose 10.00 uM): −0.235

CCc1c(C(=O)NCCc2ccc(N3CCCCC3)cc2)[nH]c2ccc(Cl)cc12 [Org 27569]
Dose.FC.CTG (ISC-enriched organoids [1]; Dose 0.08 uM, primary screen): 0.278 log 2 fold change
Z.CTG (ISC-enriched organoids [1]; Dose 0.08 uM): 0.663
Dose.FC.CTG (ISC-enriched organoids [1]; Dose 0.40 uM, primary screen): 0.072 log 2 fold change
Z.CTG (ISC-enriched organoids [1]; Dose 0.40 uM): 0.173
Dose.FC.CTG (ISC-enriched organoids [1]; Dose 2.00 uM, primary screen): 0.362 log 2 fold change
Z.CTG (ISC-enriched organoids [1]; Dose 2.00 uM): 0.865
Dose.FC.CTG (ISC-enriched organoids [1]; Dose 10.00 uM, primary screen): 0.270 log 2 fold change
Z.CTG (ISC-enriched organoids [1]; Dose 10.00 uM): 0.646
Dose.FC.LYZ.S (ISC-enriched organoids [2]; Dose 0.08 uM): 0.174 log 2 fold change
Dose.FC.LYZ.S (ISC-enriched organoids [2]; Dose 0.40 uM): 0.032 log 2 fold change
Dose.FC.LYZ.S (ISC-enriched organoids [2]; Dose 2.00 uM): 0.059 log 2 fold change
Dose.FC.LYZ.S (ISC-enriched organoids [2]; Dose 10.00 uM): 0.001 log 2 fold change
Dose.FC.LYZ.NS (ISC-enriched organoids [3]; Dose 0.08 uM, primary screen): 0.122 log 2 fold change
Z.LYZ.NS (ISC-enriched organoids [3]; Dose 0.08 uM): 1.060
Dose.FC.LYZ.NS (ISC-enriched organoids [3]; Dose 0.40 uM, primary screen): 0.051 log 2 fold change
Z.LYZ.NS (ISC-enriched organoids [3]; Dose 0.40 uM): 0.445
Dose.FC.LYZ.NS (ISC-enriched organoids [3]; Dose 2.00 uM, primary screen): 0.078 log 2 fold change
Z.LYZ.NS (ISC-enriched organoids [3]; Dose 2.00 uM): 0.683
Dose.FC.LYZ.NS (ISC-enriched organoids [3]; Dose 10.00 uM, primary screen): 0.029 log 2 fold change
Z.LYZ.NS (ISC-enriched organoids [3]; Dose 10.00 uM): 0.248
